Molecular target: human GABA A receptor α5β3γ2 (Homo sapiens (Human), UniProt P18507+P31644)
Experiment: [3H]flumazenil competition binding assay, human GABA A α5β3γ2 receptors expressed in HEK293 cells
Details: human receptor; displacement of [3H]flumazenil (0.5 nM); means of two determinations; read-out: hKi GABAAa5
Procedure, shortened: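 Ki values, each the mean of two runs, derive from displacement of [3H]flumazenil from human α5β3γ2 GABA A receptors transiently expressed in HEK293 membranes. Binding ran 1 h at 4° C in Krebs-tris, pH 7.5, before filter harvest and scintillation counting.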

Ki [nM] | SMILES
3.3 | Cc1onc(-c2ccc(F)c(F)c2)c1COc1ccc(C(=O)NCC(C)(C)CO)cn1 [Example 268, 6-[3-(3,4-Difluoro-phenyl)-5-methyl-isoxazol-4-ylmethoxy]-N-(3-hydroxy-2,2-dimethyl-propyl)-nicotinamide]
9.5 | C[C@@H](O)CNC(=O)c1ccc(OCc2conc2-c2ccc(F)cc2)nc1 [Example 337, 6-[3-(4-Fluoro-phenyl)-isoxazol-4-ylmethoxy]-N—((R)-2-hydroxy-propyl)-nicotinamide]
7.1 | Cc1onc(-c2ccncc2)c1COc1ccc(C(=O)NC2CC2)cn1 [Example 148, N-Cyclopropyl-6-(5-methyl-3-pyridin-4-yl-isoxazol-4-ylmethoxy)-nicotinamide]
9.3 | Cc1onc(-c2ccc(F)c(F)c2)c1COc1ccc(C(=O)NC(C)(C)CO)cn1 [Example 267, 6-[3-(3,4-Difluoro-phenyl)-5-methyl-isoxazol-4-ylmethoxy]-N-(2-hydroxy-1,1-dimethyl-ethyl)-nicotinamide]
1 | Cc1ccc(-c2noc(C)c2COc2ccc(C(=O)NC(C)C)cn2)cc1 [Example 252, N-Isopropyl-6-(5-methyl-3-p-tolyl-isoxazol-4-ylmethoxy)-nicotinamide]
0.6 | Cc1onc(-c2ccc(Cl)cn2)c1COc1ccc(C(=O)N2CCS(=O)(=O)CC2)cn1 [Example 307, {6-[3-(5-Chloro-pyridin-2-yl)-5-methyl-isoxazol-4-ylmethoxy]-pyridin-3-yl}-(1,1-dioxo-1,6-thiomorpholin-4-yl)-methanone]
17.8 | Cc1onc(-c2cccc(F)c2)c1CNc1ccc(C(=O)NCC(F)(F)F)cn1 [Example 168, 6-{[3-(3-Fluoro-phenyl)-5-methyl-isoxazol-4-ylmethyl]-amino}-N-(2,2,2-trifluoro-ethyl)-nicotinamide]
20.2 | Cc1onc(-c2ccncn2)c1COc1ccc(C(=O)N2CCSCC2)cn1 [Example 319, [6-(5-Methyl-3-pyrimidin-4-yl-isoxazol-4-ylmethoxy)-pyridin-3-yl]-thiomorpholin-4-yl-methanone]
1.5 | Cc1onc(-c2ccccn2)c1COc1ccc(C(=O)NCC2CC2)cn1 [Example 277, N-Cyclopropylmethyl-6-(5-methyl-3-pyridin-2-yl-isoxazol-4-ylmethoxy)-nicotinamide]
0.3 | Cc1onc(-c2ccc(F)cn2)c1COc1ccc(C(=O)NCC(F)(F)F)cn1 [Example 294]
6.8 | Cc1onc(-c2ccccn2)c1COc1ccc(C(=O)N2CCSCC2)cn1 [Example 282, [6-(5-Methyl-3-pyridin-2-yl-isoxazol-4-ylmethoxy)-pyridin-3-yl]-thiomorpholin-4-yl-methanone]
58.9 | O=C(c1ccc(OCc2c(-c3ccc(F)cc3)noc2C(F)(F)F)nc1)N1CCS(=O)(=O)CC1 [Example 145, (1,1-Dioxo-1λ6-thiomorpholin-4-yl)-{6-[3-(4-fluoro-phenyl)-5-trifluoromethyl-isoxazol-4-ylmethoxy]-pyridin-3-yl}-methanone]
17.4 | O=C(NCC1CC1)c1ccc(OCc2conc2-c2ccc(F)cc2)nc1 [Example 328, N-Cyclopropylmethyl-6-[3-(4-fluoro-phenyl)-isoxazol-4-ylmethoxy]-nicotinamide]
19 | O=C(NCC1CC1)c1ccc(OCc2conc2-c2ccccn2)nc1 [Example 361, N-Cyclopropylmethyl-6-(3-pyridin-2-yl-isoxazol-4-ylmethoxy)-nicotinamide]
22.5 | O=C(NCC1CC1)c1ccc(OCc2c(-c3ccc(F)cc3)noc2C(F)(F)F)nc1 [Example 141, N-Cyclopropylmethyl-6-[3-(4-fluoro-phenyl)-5-trifluoromethyl-isoxazol-4-ylmethoxy]-nicotinamide]
27.4 | COC(=O)c1ccc(NCc2c(-c3ccccc3)noc2C)nc1 [Example 161, 6-[(5-Methyl-3-phenyl-isoxazol-4-ylmethyl)-amino]-nicotinic acid methyl ester]
12.9 | O=C(NC1CC1)c1ccc(OCc2conc2-c2ccc(F)cc2)nc1 [Example 329, N-Cyclopropyl-6-[3-(4-fluoro-phenyl)-isoxazol-4-ylmethoxy]-nicotinamide]
3 | Cc1onc(-c2ccncn2)c1COc1ccc(C(=O)NC(C)C)cn1 [Example 313, N-Isopropyl-6-(5-methyl-3-pyrimidin-4-yl-isoxazol-4-ylmethoxy)-nicotinamide]

The next lines start with the compound.

SMILES | Ki [nM]
Cc1onc(-c2ccccc2)c1COc1ccc(C(=O)N2CCC(F)(F)CC2)cn1 [Example 52, (4,4-Difluoro-piperidin-1-yl)-[6-(5-methyl-3-phenyl-isoxazol-4-ylmethoxy)-pyridin-3-yl]-methanone] | 16.8
Cc1onc(-c2ccccc2)c1COc1cc(C(F)(F)F)c(C(=O)O)cn1 [Example 61, 6-(5-Methyl-3-phenyl-isoxazol-4-ylmethoxy)-4-trifluoromethyl-nicotinic acid] | 18.4
Cc1onc(-c2cccc(F)c2)c1COc1ccc(C(=O)N2CCSCC2)cn1 [Example 95, {6-[3-(3-Fluoro-phenyl)-5-methyl-isoxazol-4-ylmethoxy]-pyridin-3-yl}-thiomorpholin-4-yl-methanone] | 45.6
Cc1onc(-c2ccccc2)c1COc1ccc(C(=O)NCc2ccccn2)cn1 [Example 22, 6-(5-Methyl-3-phenyl-isoxazol-4-ylmethoxy)-N-pyridin-2-ylmethyl-nicotinamide] | 4.6
CCOC(=O)CN1CCCC(NC(=O)c2ccc(OCc3c(-c4ccccc4)noc3C)nc2)C1 (stereo not shown) [Example 40, (3-{[6-(5-Methyl-3-phenyl-isoxazol-4-ylmethoxy)-pyridine-3-carbonyl]-amino}-piperidin-1-yl)-acetic acid ethyl ester] | 13.8
Cc1onc(-c2cc(F)ccc2F)c1COc1ccc(C(=O)NC(C)C)cn1 [Example 265, 6-[3-(2,5-Difluoro-phenyl)-5-methyl-isoxazol-4-ylmethoxy]-N-isopropyl-nicotinamide] | 27.3
Cc1onc(-c2ccccc2)c1COc1cc(OCc2ccccc2)ccn1 [Example 56, 4-Benzyloxy-2-(5-methyl-3-phenyl-isoxazol-4-ylmethoxy)-pyridine] | 35.1
Cc1onc(-c2ccc(Cl)cn2)c1COc1ccc(C(=O)NCCO)cn1 [Example 311, 6-[3-(5-Chloro-pyridin-2-yl)-5-methyl-isoxazol-4-ylmethoxy]-(2-hydroxy-ethyl)-nicotinamide] | 0.1
Cc1onc(-c2ccccc2)c1COc1ccc(C(=O)N(C)C(C)C)cn1 [Example 70, N-Isopropyl-N-methyl-6-(5-methyl-3-phenyl-isoxazol-4-ylmethoxy)-nicotinamide] | 53.1
Cc1onc(-c2ccccc2)c1COc1cccc(C#N)n1 [Example 73, 6-(5-Methyl-3-phenyl-isoxazol-4-ylmethoxy)-pyridine-2-carbonitrile] | 20.9
CCN1CCCC(NC(=O)c2ccc(OCc3c(-c4ccccc4)noc3C)nc2)C1 (stereo not shown) [Example 39, N-(1-Ethyl-piperidin-3-yl)-6-(5-methyl-3-phenyl-isoxazol-4-ylmethoxy)-nicotinamide] | 5
Cc1onc(-c2ccccc2)c1COc1ccc(C(=O)N[C@H](CO)CC(C)C)cn1 [Example 207, N—((S)-1-Hydroxymethyl-3-methyl-butyl)-6-(5-methyl-3-phenyl-isoxazol-4-ylmethoxy)-nicotinamide] | 10.9
Cc1onc(-c2ccccc2)c1COc1ccc(Br)cn1 [Example 3, 5-Bromo-2-(5-methyl-3-phenyl-isoxazol-4-ylmethoxy)-pyridine] | 31.1
Cc1onc(-c2cccc(Cl)c2)c1COc1ccc(C(=O)NC2CCOCC2)cn1 [Example 101, 6-[3-(3-Chloro-phenyl)-5-methyl-isoxazol-4-ylmethoxy]-N-(tetrahydro-pyran-4-yl)-nicotinamide] | 3.9
Cc1onc(-c2ccccc2)c1COc1ccc(C(=O)NC2CCS(=O)(=O)CC2)cn1 [Example 33, N-(1,1-Dioxo-hexahydro-1,6-thiopyran-4-yl)-6-(5-methyl-3-phenyl-isoxazol-4-ylmethoxy)-nicotinamide] | 4.9
Cc1onc(-c2ccc(Cl)cc2)c1COc1ccc(C(=O)NC(C)C)cn1 [Example 119, 6-[3-(4-Chloro-phenyl)-5-methyl-isoxazol-4-ylmethoxy]-N-isopropyl-nicotinamide] | 0.7
Cc1onc(-c2ccccc2)c1COc1ccc(C(=O)NC2CCCN(CC(=O)NC3CCOCC3)C2)cn1 (stereo not shown) [Example 46, 6-(5-Methyl-3-phenyl-isoxazol-4-ylmethoxy)-N-{1-[(tetrahydro-pyran-4-ylcarbamoyl)-methyl]-piperidin-3-yl}-nicotinamide] | 13.1
CC(C)NC(=O)c1ccc(OCc2conc2-c2ccc(F)cn2)nc1 [Example 366, 6-[3-(5-Fluoro-pyridin-2-yl)-isoxazol-4-ylmethoxy]-isopropyl-nicotinamide] | 6.8
Cc1onc(-c2ccc(Cl)cc2)c1COc1ccc(C(=O)N2CCSCC2)cn1 [Example 124, {6-[3-(4-Chloro-phenyl)-5-methyl-isoxazol-4-ylmethoxy]-pyridin-3-yl}-thiomorpholin-4-yl-methanone] | 7.5
Cc1onc(-c2ccccc2)c1COc1ccc(C(=O)N[C@H]2CCCC[C@H]2O)cn1 (single isomer, unassigned) [Example 204, N-((1S,2R)-2-Hydroxy-cyclohexyl)-6-(5-methyl-3-phenyl-isoxazol-4-ylmethoxy)-nicotinamide or N-((1R,2S)-2-Hydroxy-cyclohexyl)-6-(5-methyl-3-phenyl-isoxazol-4-ylmethoxy)-nicotinamide] | 4.4
Cc1onc(-c2ccccc2)c1COc1ccc(C(=O)N2CCC23COC3)cn1 [Example 82, [6-(5-Methyl-3-phenyl-isoxazol-4-ylmethoxy)-pyridin-3-yl]-(6-oxa-1-aza-spiro[3.3]hept-1-yl)-methanone] | 16.8
CC(C)NC(=O)c1ccc(OCc2c(-c3ccccc3)noc2C(F)(F)F)nc1 [Example 133, N-Isopropyl-6-(3-phenyl-5-trifluoromethyl-isoxazol-4-ylmethoxy)-nicotinamide] | 41.6
